The results in this text go back to patent US12331051B2 (priority 2021, dated 2025).

In test [1] the target is T1, Serotonin 1A receptor (5-HT1AR) (Homo sapiens, UniProt P08908).
T1 construct: expressed in transfected cells; host or cells: HEK-293
T1 sequence (P08908 1-422): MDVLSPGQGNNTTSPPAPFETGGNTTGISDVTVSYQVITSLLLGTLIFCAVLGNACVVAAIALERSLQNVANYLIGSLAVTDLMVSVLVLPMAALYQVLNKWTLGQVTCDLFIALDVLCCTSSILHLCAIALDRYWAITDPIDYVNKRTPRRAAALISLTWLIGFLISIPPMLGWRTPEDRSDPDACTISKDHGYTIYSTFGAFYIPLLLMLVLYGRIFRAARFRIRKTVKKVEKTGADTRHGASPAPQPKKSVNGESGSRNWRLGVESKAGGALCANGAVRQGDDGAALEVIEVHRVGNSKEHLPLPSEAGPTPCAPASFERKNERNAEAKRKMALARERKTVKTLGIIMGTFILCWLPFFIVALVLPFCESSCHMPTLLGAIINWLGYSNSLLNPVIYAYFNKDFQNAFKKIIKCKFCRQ
Nature of the test: Functional assay in HEK-293 cells (Ca2+ flux). It is filed as cell-based. Here is the method:
(§1) Neuro-receptor binding and functional effects of the “E559 polymorph” was examined by analyzing binding affinity [Ki (nM)], functional agonist activity [EC50 (nM)], and functional antagonist activity [IC50 (nM)] against a panel of key receptors in neurophysiological disorders. Binding and functional assays were performed at “E559 polymorph” concentrations of 0.0003, 0.003, 0.01, 0.03, 0.1, 0.3, 1, and 10 μM. In binding assays, cell membrane homogenates, expressing each receptor target, were incubated with the corresponding radio-ligand in absence or presence of several concentration of the “E559 polymorph” compound. The measurement of binding affinity of the “E559 polymorph” is represented in TABLE XIII by Ki (nM) which was calculated as percent inhibition of the binding of a radioactively labeled reference ligand at each receptor. In functional assays the HEK-293 cells expressing each receptor target were suspended in buffer and distribute in microplates and incubated for 30 minutes at room temperature or 37° C. in the presence of buffer alone (basal control), the reference agonist or antagonist, or the “E559 polymorph. Following incubation, the cells were lysed and the appropriate fluorescent probe (Ca2+ flux, cAMP, or IP1) were added for 60 minutes to measure the fluorescence transfer at the appropriate wavelength using a microplate reader. The cellular agonist effect (EC50) was calculated as a percent of control response to a known reference agonist and the cellular antagonist effect (IC50) was calculated as a percent inhibition of control reference agonist response for each receptor.
(In general: A change in cytosolic calcium serves as a functional read-out for many receptors and channels.)

Test [2] deals with T2, Alpha 2C adrenergic receptor (Homo sapiens, UniProt P18825).
T2 construct: expressed in transfected cells; host or cells: HEK-293
T2 sequence (P18825 1-462): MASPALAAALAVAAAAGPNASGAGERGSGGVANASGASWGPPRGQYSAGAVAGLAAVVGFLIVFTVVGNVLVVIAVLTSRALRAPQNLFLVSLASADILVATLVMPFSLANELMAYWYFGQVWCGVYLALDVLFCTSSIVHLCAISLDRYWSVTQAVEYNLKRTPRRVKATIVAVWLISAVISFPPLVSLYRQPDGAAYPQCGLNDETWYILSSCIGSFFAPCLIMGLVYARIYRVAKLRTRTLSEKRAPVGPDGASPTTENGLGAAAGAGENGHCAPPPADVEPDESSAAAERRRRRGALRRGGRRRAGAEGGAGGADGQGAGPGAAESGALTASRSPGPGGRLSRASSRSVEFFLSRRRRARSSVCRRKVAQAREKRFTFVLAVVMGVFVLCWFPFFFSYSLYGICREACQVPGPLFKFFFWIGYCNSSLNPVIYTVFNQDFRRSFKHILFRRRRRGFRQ
Put plainly: Functional assay in HEK-293 cells (cAMP). It is filed as cell-based. How it is done:
as §1

Test [3] deals with T3, Beta 2 adrenergic receptor (Homo sapiens, UniProt P07550).
T3 construct: expressed in transfected cells; host or cells: HEK-293
Put plainly: Functional assay in HEK-293 cells (cAMP). The test is classed as cell-based. Here is the method:
as §1

Test [4] deals with T4, Serotonin 7 receptor (5-HT7R) (Homo sapiens, UniProt P34969).
T4 construct: expressed in transfected cells; host or cells: HEK-293
Put plainly: Functional assay in HEK-293 cells (cAMP). The test is classed as cell-based. Here is the method: as §1

Test [5] deals with T5, Alpha 2B adrenergic receptor (Homo sapiens, UniProt P18089).
T5 construct: expressed in transfected cells; host or cells: HEK-293
T5 sequence (P18089 1-450): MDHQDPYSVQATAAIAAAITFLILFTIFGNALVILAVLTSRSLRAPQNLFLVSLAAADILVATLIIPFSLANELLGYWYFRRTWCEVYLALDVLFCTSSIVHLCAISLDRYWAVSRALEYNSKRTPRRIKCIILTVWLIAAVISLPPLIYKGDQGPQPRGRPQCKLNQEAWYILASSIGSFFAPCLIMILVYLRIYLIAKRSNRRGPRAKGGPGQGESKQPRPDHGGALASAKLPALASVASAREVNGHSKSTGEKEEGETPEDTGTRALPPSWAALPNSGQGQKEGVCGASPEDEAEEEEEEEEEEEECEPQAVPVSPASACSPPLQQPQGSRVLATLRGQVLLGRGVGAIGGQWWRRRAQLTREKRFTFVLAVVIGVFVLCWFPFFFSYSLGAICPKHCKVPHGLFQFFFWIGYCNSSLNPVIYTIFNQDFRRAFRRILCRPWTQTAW
Nature of the test: Functional assay in HEK-293 cells (cAMP). The test is classed as cell-based. Here is the method:
as §1

For test [6], the target named is T6, D2S dopamine receptor (Homo sapiens, UniProt P14416).
T6 construct: expressed in transfected cells; host or cells: HEK-293
Put plainly: Functional assay in HEK-293 cells (cAMP). The test is classed as cell-based. How it is done:
as §1

Test [7] has as its target T7, Beta 1 adrenergic receptor (Homo sapiens, UniProt P08588).
T7 construct: expressed in transfected cells; host or cells: HEK-293
Nature of the test: Functional assay in HEK-293 cells (cAMP). It is filed as cell-based. How it is done: as §1

Test [8] deals with T8, ADRa2C (α2C adrenergic receptor) (Homo sapiens, UniProt P18825).
T8 sequence (P18825 1-462): T2 sequence (P18825 1-462)
Nature of the test: cell-based.

For orientation: EC50 means the concentration at which the effect is half-maximal. Low readings indicate higher potency in that assay, high ones lower potency in that assay. What is called IC50 is the point on the concentration scale where inhibition reaches its midpoint. Low readings indicate greater potency in that assay, high ones weaker potency in that assay. The term Emax denotes the size of the effect at its maximum, as opposed to the concentration needed.

Each structure is given as a SMILES string.

T3 sequence (P07550 whole entry): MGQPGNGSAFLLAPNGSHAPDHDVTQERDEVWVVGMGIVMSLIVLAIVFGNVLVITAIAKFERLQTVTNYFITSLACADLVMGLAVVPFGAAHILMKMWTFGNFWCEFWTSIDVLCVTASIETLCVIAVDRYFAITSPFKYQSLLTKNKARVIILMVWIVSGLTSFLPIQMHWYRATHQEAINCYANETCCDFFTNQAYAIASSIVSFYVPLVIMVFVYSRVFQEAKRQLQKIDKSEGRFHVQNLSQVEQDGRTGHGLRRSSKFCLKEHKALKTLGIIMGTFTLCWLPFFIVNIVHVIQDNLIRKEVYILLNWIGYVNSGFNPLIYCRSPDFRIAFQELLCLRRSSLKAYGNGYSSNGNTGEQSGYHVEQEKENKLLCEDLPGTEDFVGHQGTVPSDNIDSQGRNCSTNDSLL
T6 sequence (P14416 1-414 isoform P14416-2): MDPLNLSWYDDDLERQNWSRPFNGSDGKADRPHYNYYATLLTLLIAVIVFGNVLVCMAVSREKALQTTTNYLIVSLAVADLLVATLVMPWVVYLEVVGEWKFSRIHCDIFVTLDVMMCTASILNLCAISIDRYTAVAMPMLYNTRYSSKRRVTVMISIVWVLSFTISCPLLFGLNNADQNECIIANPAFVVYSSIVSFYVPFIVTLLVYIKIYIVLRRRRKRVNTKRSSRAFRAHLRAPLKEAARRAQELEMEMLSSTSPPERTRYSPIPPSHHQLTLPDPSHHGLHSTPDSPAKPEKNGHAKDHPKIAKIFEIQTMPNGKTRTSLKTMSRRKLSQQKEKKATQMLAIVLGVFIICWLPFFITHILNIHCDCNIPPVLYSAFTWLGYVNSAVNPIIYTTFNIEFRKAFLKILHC
T7 sequence (P08588 whole entry): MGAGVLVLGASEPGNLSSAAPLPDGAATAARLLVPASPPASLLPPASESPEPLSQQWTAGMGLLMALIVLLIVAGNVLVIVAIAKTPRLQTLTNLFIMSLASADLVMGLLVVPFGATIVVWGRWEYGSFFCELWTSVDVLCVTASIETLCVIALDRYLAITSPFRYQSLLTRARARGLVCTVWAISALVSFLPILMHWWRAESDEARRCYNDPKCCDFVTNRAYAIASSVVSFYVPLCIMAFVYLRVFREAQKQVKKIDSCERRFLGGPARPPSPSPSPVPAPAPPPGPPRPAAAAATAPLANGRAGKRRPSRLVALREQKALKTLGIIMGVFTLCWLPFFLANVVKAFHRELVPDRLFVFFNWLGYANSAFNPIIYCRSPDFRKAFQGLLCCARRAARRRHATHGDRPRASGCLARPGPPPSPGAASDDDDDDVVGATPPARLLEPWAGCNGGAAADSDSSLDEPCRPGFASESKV
T4 sequence (P34969 whole entry): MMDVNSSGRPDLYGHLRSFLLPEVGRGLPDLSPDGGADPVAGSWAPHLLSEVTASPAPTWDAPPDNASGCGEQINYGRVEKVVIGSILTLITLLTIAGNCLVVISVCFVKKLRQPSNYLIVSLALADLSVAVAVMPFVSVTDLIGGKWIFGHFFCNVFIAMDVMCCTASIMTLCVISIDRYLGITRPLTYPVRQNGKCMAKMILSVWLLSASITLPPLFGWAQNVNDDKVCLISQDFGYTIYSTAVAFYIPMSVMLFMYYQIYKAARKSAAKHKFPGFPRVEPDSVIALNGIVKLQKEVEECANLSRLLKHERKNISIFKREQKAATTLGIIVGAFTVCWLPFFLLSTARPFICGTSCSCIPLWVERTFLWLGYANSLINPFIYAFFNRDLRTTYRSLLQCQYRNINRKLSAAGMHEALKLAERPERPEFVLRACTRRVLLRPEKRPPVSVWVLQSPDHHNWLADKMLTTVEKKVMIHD

As to `CCN(CC)C(=O)[C@@H]1C=C2c3cccc4[nH]c(Br)c(c34)C[C@H]2N(C)C1` [E559, (5R, 8R)-2-Bromo-9,10-didehydro-N,N-diethyl-6-methylergoline-8-carboxamide hemi-D-tartrate], the concentration giving a half-maximal response (EC50) in test [1] is 3 µM; in test [2], 0.73 µM; in test [3] it was more than 10 µM; in test [4] it was more than 10 µM; in test [5], more than 10 µM; in test [6], more than 10 µM. Also, the concentration giving a half-maximal response (EC50) in test [7] is more than 10 µM; in test [8], 0.0103 µM. Moreover, the half-inhibitory concentration (IC50) in test [1] was more than 10 µM; in test [2], more than 10 µM; in test [3] it was 0.36 µM; in test [4], 0.24 µM; in test [5] it was 3.6 µM; in test [6], more than 10 µM. This compound returned an IC50 in test [7] of 0.87 µM. In addition, the Emax in test [8] was determined as 40.5%. The same compound gave a Kb in test [8] of 0.016 µM.
